Patent US6951682B1, “Porous coatings bearing ligand arrays and use thereof” (Syntrix Biochip, Inc., priority 1998, dated 2005)

Legend:
[1] = target: T1, angiotensin converting enzyme (ACE) (Homo sapiens, UniProt P12821); assay: ACE inhibitory activity, functional assay with substrate FAPGG (absorbance at 328 nm); format: biochemical; conditions: 10 nM ACE, 50 μM FAPGG
Experimental: Each assay mixture contained 10 nM ACE, 50 μM FAPGG, 50 mM Tris (pH 8.3), 300 mM NaCl, and 20-40 μl of each of the above analogue solutions in a total reaction volume of 50 μl. The above mixture without analogue served as the negative control for inhibitory activity. […] Each reaction was initiated by adding 5 μl of 500 μM FAPGG to 45 μl of the remaining assay components in a 100 μl cuvette. The temporal progress of each reaction was monitored by measuring the absorbance at 328 nm every 15 seconds.
The percent ACE inhibition is expressed as the percent decrease in initial velocity relative to the initial velocity of the negative control. […] Compositions are referenced by R1 and R2 groups as defined in Table XI.

[2] = target: T1, angiotensin converting enzyme (ACE); conditions: as reported by Patchett et al.; read-out: IC50 (binding affinity for ACE); cited from earlier work
[3] = system: PNA-array linker-spacer-CGN1N2TCCG-NH2; assay: Hybridization of fluorescein-labeled DNA-receptor to 16-element PNA-array on patterned porous coating (epifluorescence); format: binding; conditions: 10 μM in 6×SSPE, 10 minutes at room temperature; 10× objective, 15 seconds exposure
Experimental: A patterned porous coating comprising a 4×4 array of 600 μm×600 μm porous squares was prepared as described in Example 19, and coupled with amino-linker molecules using the method described in Example 20. The PNA-array was then synthesized on the surface of the patterned porous coating with each array element occupying one 600 μm×600 μm porous square. Each element of the array comprised one of the 16 possible combinations of the sequence, linker-spacer-CGN1N2TCCG-NH2, where N1 and N2 may independently be A, G, C, or T. The position of each element in the array, as referenced by the N1N2 sequence, is shown in the array schematics of FIGS. 6A and 6B. […]
The fluorescence image of the porous coating was captured at room temperature using a 35 mm camera attached to a Standard Epifluorescence Microscope. The fluorescence image of FAA bound at the predicted array element is readily detected and visualized using an objective magnification of 10× and an exposure time of 15 seconds (see FIG. 6 and corresponding surface plot).
Bound FAA was dissociated from the PNA-array by immersing the slide in 90° C. water, and the hybridization repeated with FTA using conditions as described above for FAA. The fluorescence image of the FTA hybridization was captured with the 10× objective of a Standard Epifluorescence Microscope with attached 35 mm camera. […]

[4] = system: surface-bound DNA-ligand 5′-GCCTACGC-3′; assay: Hybridization of fluorescein-labeled DNA-receptor to DNA-ligand synthesized on patterned porous coating (epifluorescence); format: binding; conditions: 10 μM in 6×SSPE, 1 hour at 4° C., wash at 15° C.; 10× objective, 15 seconds exposure
Experimental: Using the DNA synthesizer to automatically deliver reagents, the DNA-ligand with the sequence 5′-[…]-3′ was synthesized via eight phosphoramidite couplings on the exposed hydroxyl groups beginning with the 3′ end. Following synthesis, the reactor system was separated from the DNA synthesizer, and the phosphate and exocyclic amine protecting groups removed by manually applying 0.05 M potassium carbonate in methanol to the reactor cavity for 2 hours at room temperature. […]
The 6×SSPE solution is a high-salt buffer with a pH of 7.4 comprising 1M NaCl, 66 mM NaH2PO4/Na2HPO4, 6 mM EDTA, and 0.05° Triton X-100-™ The slide was subsequently washed in 6×SSPE at a temperature of 15° C., and mounted on a modified microscope stage attached to a Standard Epifluorescence Microscope The stage contained an aqueous gel within its interior that was chilled to approximately 4° C. prior to image acquisition. The fluorescence image of FTA hybridized to the porous coating was captured using a 35 mm camera attached to the microscope. […]
Following hybridization, the slide was washed in 6×SSPE at a temperature of 15° C. and mounted on the modified stage as described above. The fluorescence image of the FAA hybridization was captured with the 10× objective of a Standard Epifluorescence Microscope with attached 35 mm camera. […]

T1 sequence (P12821 30-1306, species assumed): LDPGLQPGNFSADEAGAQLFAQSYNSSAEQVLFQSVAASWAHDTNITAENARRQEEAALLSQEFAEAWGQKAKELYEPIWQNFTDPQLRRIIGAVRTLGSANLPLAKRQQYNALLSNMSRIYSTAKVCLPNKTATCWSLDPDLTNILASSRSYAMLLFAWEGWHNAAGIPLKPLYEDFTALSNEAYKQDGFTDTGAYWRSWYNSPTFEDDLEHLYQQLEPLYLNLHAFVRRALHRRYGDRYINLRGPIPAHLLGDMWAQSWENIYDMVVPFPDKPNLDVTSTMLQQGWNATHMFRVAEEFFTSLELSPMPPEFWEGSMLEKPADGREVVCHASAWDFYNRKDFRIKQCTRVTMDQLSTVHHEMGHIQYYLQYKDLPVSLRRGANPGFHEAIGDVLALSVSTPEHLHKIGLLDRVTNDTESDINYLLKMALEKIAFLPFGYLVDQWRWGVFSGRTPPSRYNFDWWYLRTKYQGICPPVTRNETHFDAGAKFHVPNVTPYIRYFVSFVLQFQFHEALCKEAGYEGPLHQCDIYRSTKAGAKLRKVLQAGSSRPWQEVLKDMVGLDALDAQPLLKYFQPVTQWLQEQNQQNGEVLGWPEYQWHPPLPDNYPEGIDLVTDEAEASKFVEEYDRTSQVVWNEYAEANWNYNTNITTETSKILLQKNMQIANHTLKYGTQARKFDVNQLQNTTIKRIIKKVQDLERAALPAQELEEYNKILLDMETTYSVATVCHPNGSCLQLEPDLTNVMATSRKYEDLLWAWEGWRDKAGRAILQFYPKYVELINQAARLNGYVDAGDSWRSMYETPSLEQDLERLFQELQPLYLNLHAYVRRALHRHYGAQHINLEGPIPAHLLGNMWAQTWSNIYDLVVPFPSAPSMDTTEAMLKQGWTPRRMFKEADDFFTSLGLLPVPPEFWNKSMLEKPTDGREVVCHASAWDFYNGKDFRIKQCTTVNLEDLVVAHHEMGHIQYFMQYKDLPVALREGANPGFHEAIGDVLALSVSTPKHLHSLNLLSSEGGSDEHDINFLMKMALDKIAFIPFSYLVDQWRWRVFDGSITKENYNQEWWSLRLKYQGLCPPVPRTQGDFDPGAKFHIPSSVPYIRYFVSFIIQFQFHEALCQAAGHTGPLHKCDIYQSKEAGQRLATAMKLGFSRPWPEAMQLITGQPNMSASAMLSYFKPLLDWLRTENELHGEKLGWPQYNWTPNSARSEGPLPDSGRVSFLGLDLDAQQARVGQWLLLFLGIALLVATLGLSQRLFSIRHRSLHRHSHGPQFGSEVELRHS

Molecule	percent ACE inhibition (percent decrease in initial velocity relative to the negative control) ([1]; analogue cleaved from one array element of a 1 μm thick porous coat, pH 8.3)	IC50 [2]	specificity of hybridization to PNA-array [3]	fluorescence image of hybridized DNA-receptor [4]	initial velocity ([1]; positive control, 250 nM lisinopril)
CC(NC(Cc1ccccc1)C(=O)O)C(=O)N1CCCC1C(=O)O (stereo not shown) [R1a+R2a]	35%	39 nM	–	–	–
5′-GCGTAGGC-fluorescein [FTA]	–	–	hybridizes specifically to its complementary PNA sequence with little or no signal from other array elements	readily visible	–
5′-GCGAAGGC-fluorescein [FAA]	–	–	hybridizes specifically to its complementary PNA sequence with little or no signal from other array elements	equivalent to the images with no receptor	–
NCCCC[C@H](N[C@@H](CCc1ccccc1)C(=O)O)C(=O)N1CCC[C@H]1C(=O)O [lisinopril]	–	–	–	–	zero
